Test [1] concerns the target T1, SMARCA2 (Homo sapiens, UniProt P51531).
T1 construct: endogenous in cells; host or cells: RKO cells (CRL-2577, ATCC)
Put plainly: SMARCA2 degradation analysis by imaging in RKO cells (DC50 A2). The note with it: tables 69, 70, 73, 76-78. In kind it is cell-based. The protocol: (§1) Determination of SMARCA2 and SMARCA4 Degradation (DC50 A2 and A4 [nM])
(§2) Protein Degradation Assays for SMARCA2 and SMARCA4
(§3) For degradation analysis by imaging, 1250 RKO cells (CRL-2577, ATCC) per well were seeded into 60 μL DMEM (Sigma Aldrich) supplemented with 10% FBS (Hyclone) in 384-well flat bottom plates (CellCarrier Ultra, Perkin Elmer) and incubated at 37° C. and 5% CO2 in a humidified atmosphere overnight. Compounds were added the next day using an Access Labcyte Workstation with a Labcyte Echo 550 or 555 acoustic dispenser and incubated with the cells for 4 or 24 h. Cells were fixed by adding 25 μL fixation buffer (7.4% formaldehyde (Sigma Aldrich F8775), 0.2% Triton TX100 (Sigma Aldrich F93443) in PBS) for 15 minutes at room temperature. After aspirating the fixing solution, the cells were washed once with 25 μL PBS and 25 μL of Blocking Buffer (10% Goat Serum in PBS) were added to each well and incubated for 30 minutes. Cells were washed with PBS and incubated with 20 μL mouse anti-Smarca4 (BRG1) antibody (Cell Signaling #52251) or rabbit anti-Smarca2 (BRM) antibody (Sigma Aldrich HPA029981) in blocking solution (PBS with 10% FCS) for ca. 2-4 h at RT. For detection of the nuclei, 25 μL of 5 μg/mL Hoechst 33342 (stock 10 mg/mL in H2O; Invitrogen H1399) were added together with Alexa Fluor 647 goat anti-mouse IgG (Invitrogen A-21235) or Alexa Fluor 488 goat anti-rabbit IgG (Invitrogen A-11034) in blocking solution and incubated for 60 min at RT. The cell layer was washed with 25 μL PBS, the wells were filled with 25 μL PBS and the plates sealed with an adhesive sheet. The mean intensity at 488 or 647 nm in the nucleus was measured using an Opera Phenix Plus High-Content Screening System (Perkin Elmer), values were normalized to the background and DMSO control and DC50 values were calculated and analyzed using a four-parametric logistic model.

Test [2] deals with T2, SMARCA4 (Homo sapiens, UniProt P51532).
T2 construct: endogenous in cells; host or cells: RKO cells (CRL-2577, ATCC)
The test can be described thus: SMARCA4 degradation analysis by imaging in RKO cells (DC50 A4). Format: cell-based. The note with it: tables 69, 70, 73, 76-78. The method, then:
as §1, §2, §3

Here are results for 26 molecules from US20250049929A1, “NOVEL TETRAHYDROQUINOLINES AND PROTEOLYSIS TARGETING CHIMERA (PROTACS) COMPRISING THEM AS DEGRADERS OF SMARCA” (Boehringer Ingelheim International GmbH, priority 2021, published 2025).

T1 sequence (P51531 whole entry): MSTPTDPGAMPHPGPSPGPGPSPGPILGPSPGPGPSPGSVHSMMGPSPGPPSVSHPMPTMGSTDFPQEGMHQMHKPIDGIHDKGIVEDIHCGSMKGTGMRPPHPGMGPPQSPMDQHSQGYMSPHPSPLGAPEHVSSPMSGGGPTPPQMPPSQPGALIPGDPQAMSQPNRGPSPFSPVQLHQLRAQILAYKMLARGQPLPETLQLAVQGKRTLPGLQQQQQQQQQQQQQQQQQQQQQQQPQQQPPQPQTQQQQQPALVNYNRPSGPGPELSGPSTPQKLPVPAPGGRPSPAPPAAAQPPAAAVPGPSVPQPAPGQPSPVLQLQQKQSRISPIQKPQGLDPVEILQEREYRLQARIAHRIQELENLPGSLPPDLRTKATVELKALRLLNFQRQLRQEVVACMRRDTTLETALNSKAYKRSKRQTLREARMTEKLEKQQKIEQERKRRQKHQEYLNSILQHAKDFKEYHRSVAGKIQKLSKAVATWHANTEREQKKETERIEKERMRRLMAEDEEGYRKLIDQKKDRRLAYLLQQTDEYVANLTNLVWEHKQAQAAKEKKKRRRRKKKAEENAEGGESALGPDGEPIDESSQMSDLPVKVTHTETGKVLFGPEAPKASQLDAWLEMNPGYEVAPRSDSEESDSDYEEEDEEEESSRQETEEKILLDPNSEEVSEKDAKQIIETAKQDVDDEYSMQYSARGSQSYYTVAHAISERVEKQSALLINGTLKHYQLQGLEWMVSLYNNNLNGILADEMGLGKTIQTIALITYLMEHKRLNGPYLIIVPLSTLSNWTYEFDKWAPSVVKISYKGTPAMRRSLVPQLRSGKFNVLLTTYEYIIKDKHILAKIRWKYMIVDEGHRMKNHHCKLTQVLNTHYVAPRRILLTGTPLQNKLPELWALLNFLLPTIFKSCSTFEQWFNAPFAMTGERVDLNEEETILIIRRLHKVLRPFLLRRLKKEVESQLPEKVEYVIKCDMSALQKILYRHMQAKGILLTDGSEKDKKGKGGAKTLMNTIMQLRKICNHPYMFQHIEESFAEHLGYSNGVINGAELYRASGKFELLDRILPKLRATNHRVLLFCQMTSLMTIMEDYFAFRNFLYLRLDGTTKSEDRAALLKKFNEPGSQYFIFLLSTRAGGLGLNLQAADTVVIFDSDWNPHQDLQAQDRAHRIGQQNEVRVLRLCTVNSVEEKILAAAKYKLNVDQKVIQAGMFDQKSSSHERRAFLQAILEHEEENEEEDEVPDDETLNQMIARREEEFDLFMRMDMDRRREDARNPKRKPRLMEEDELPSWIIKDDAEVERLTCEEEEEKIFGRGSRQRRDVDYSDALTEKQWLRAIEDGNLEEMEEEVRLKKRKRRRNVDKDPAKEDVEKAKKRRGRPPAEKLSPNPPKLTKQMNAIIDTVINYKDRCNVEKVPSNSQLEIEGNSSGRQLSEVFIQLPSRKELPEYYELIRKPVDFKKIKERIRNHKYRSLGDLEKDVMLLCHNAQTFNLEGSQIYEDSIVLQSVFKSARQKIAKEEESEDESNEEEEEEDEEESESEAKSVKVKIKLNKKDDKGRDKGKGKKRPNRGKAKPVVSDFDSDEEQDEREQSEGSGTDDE
T2 sequence (P51532 whole entry): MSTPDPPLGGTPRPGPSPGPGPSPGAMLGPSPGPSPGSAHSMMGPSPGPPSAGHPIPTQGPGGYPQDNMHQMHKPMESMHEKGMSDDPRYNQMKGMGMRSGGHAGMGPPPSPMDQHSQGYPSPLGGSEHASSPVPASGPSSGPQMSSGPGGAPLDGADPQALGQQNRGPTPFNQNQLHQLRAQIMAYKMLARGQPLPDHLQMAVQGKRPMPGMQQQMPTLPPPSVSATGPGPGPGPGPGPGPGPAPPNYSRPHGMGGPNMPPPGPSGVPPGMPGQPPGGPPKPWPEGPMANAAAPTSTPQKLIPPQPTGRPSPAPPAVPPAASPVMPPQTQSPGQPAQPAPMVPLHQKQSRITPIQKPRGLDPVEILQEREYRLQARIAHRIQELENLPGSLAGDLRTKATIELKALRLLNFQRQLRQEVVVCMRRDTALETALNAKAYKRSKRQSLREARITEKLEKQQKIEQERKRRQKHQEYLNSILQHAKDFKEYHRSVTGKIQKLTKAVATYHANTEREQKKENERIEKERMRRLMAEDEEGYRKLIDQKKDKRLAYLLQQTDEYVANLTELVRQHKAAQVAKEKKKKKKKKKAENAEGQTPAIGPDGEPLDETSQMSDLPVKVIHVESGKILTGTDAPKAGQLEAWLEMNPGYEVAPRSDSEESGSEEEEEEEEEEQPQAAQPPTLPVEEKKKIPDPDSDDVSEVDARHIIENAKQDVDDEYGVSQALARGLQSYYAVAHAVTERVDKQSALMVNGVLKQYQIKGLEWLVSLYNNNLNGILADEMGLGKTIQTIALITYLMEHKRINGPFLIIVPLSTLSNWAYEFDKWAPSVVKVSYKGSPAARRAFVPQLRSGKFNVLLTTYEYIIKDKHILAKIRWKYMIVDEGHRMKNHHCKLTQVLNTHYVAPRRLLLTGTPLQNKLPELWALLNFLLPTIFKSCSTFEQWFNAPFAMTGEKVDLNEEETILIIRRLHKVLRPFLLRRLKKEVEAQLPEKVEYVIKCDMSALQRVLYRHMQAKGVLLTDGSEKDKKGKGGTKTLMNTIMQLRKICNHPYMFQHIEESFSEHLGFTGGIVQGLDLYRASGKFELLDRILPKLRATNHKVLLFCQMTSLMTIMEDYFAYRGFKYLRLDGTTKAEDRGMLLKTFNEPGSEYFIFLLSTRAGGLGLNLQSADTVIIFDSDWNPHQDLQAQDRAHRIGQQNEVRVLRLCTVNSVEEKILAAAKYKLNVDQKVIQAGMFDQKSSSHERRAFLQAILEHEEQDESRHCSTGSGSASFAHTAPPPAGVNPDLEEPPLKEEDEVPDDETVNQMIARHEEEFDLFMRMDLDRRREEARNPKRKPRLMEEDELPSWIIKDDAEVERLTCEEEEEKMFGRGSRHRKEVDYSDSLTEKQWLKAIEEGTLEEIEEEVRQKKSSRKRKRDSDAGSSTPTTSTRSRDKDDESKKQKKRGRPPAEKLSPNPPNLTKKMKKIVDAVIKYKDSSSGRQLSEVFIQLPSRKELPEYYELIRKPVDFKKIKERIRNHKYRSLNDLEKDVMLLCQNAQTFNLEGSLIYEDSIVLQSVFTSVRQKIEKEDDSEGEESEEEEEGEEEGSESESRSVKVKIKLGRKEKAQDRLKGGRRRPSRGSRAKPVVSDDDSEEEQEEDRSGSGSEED

For the molecule `CCn1c2cc(C3CCN(CCCCC[C@H](NC(=O)[C@@H]4C[C@@H](O)CN4C(=O)[C@@H](NC(=O)C4(F)CC4)C(C)(C)C)c4ccc(-c5scnc5C)cc4)CC3)ccc2n2c3cccc(Br)c3c(=O)nc12` [Compound 42ba], the DC50 in test [1] worked out at 4 nM; in test [2], 22 nM.

Turning to `Cc1ncsc1-c1ccc([C@H](COCCN2CCC(c3ccc4c(c3)n(C3CCCC3)c3nc(=O)c5c(Br)cccc5n43)CC2)NC(=O)[C@@H]2C[C@@H](O)CN2C(=O)[C@@H](NC(=O)C2(C)CC2)C(C)(C)C)cc1` [Compound 42bb], the DC50 in test [1] came to 17 nM; in test [2] it was 142 nM.

As for `Cc1ncsc1-c1ccc([C@H](COCCN2CCC(c3ccc4c(c3)n(C3CCCC3)c3nc(=O)c5c(Br)cccc5n43)CC2)NC(=O)[C@@H]2C[C@@H](O)CN2C(=O)[C@@H](NC(=O)C2(C(F)(F)F)CC2)C(C)(C)C)cc1` [Compound 42bc], the DC50 came to 19 nM in test [1] and 133 nM in test [2].

As for `Cc1ncsc1-c1ccc([C@H](COCCN2CCC(c3ccc4c(c3)n(C3CCCC3)c3nc(=O)c5c(Br)cccc5n43)CC2)NC(=O)[C@@H]2C[C@@H](O)CN2C(=O)[C@@H](NC(=O)C2(C3CC3)CC2)C(C)(C)C)cc1` [Compound 42bd], the DC50 in test [1] came out at 11 nM; in test [2] it was 64 nM.

With `Cc1ncsc1-c1ccc([C@H](COCCN2CCC(c3ccc4c(c3)n(C3CCCC3)c3nc(=O)c5c(Br)cccc5n43)CC2)NC(=O)[C@@H]2C[C@@H](O)CN2C(=O)[C@@H](NC(=O)C2(C#N)CC2)C(C)(C)C)cc1` [Compound 42be], the values for the DC50 in test [1] and in test [2] were 12 nM and 67 nM, respectively.

On to `COC(=O)C1(C(=O)N[C@H](C(=O)N2C[C@H](O)C[C@H]2C(=O)N[C@@H](COCCN2CCC(c3ccc4c(c3)n(C3CCCC3)c3nc(=O)c5c(Br)cccc5n43)CC2)c2ccc(-c3scnc3C)cc2)C(C)(C)C)CC1` [Compound 42bf], for which the DC50 in test [1] is 8 nM; in test [2] it was 87 nM.

For `Cc1ncsc1-c1ccc([C@H](COCCN2CCC(c3ccc4c(c3)n(C3CCCC3)c3nc(=O)c5c(Br)cccc5n43)CC2)NC(=O)[C@@H]2C[C@@H](O)CN2C(=O)[C@@H](NC(=O)C23CCCCC2C3)C(C)(C)C)cc1` (stereo partly shown) [Compound 42bh], the 50% degradation concentration (DC50) turned out to be 6 nM in test [1] and 153 nM in test [2].

Regarding `Cc1ncsc1-c1ccc([C@H](CCCN2CCC(c3ccc4c(c3)n(C3CCCC3)c3nc(=O)c5c(N)cccc5n43)CC2)NC(=O)[C@@H]2C[C@@H](O)CN2C(=O)[C@@H](NC(=O)C2(N3CCCC3)CC2)C(C)(C)C)cc1` [Compound 42bi], the DC50 was determined as 3 nM in test [1] and 6 nM in test [2].

Consider `CC(=O)O[C@@H]1C[C@@H](C(=O)N[C@@H](CCCCCN2CCC(c3ccc4c(c3)n(C3CCCC3)c3nc(=O)c5c(Br)cccc5n43)CC2)c2ccc(-c3scnc3C)cc2)N(C(=O)[C@@H](NC(=O)C2(F)CC2)C(C)(C)C)C1` [Compound 42bj], for which the half-maximal degradation concentration (DC50) in test [1] amounted to 8 nM; in test [2], 83 nM.

Turning to `CCCCC(=O)O[C@@H]1C[C@@H](C(=O)N[C@@H](CC[C@H](C)CCN2CCC(c3ccc4c(c3)n(C3CCCC3)c3nc(=O)c5c(Br)cccc5n43)CC2)c2ccc(-c3scnc3C)cc2)N(C(=O)[C@@H](NC(=O)C2(F)CC2)C(C)(C)C)C1` [Compound 42bk], the DC50 was found to be 3 nM in test [1] and 60 nM in test [2].

Consider `Cc1ncsc1-c1ccc([C@H](CCCCCN2CCC(c3ccc4c(c3)n(C3CCCC3)c3nc(=O)c5c(Br)cccc5n43)CC2)NC(=O)[C@@H]2C[C@@H](O)CN2C(=O)[C@@H](NC(=O)C2(F)CC2)C(C)(C)C2CC2)cc1` [Compound 42c], for which the DC50 is 0.7 nM in test [1] and 11 nM in test [2].

For `Cc1ncsc1-c1ccc([C@H](CC[C@@H](C)CCN2CCC(c3ccc4c(c3)n(C3CCCC3)c3nc(=O)c5c(Br)cccc5n43)CC2)NC(=O)[C@@H]2C[C@@H](O)CN2C(=O)[C@@H](NC(=O)C2(F)CC2)C(C)(C)C)cc1` [Compound 42d], the DC50 in test [1] came to 0.7 nM; in test [2] it was 7 nM.

Turning to `Cc1ncsc1-c1ccc([C@H](CCC(O)CCN2CCC(c3ccc4c(c3)n(C3CCCC3)c3nc(=O)c5c(Br)cccc5n43)CC2)NC(=O)[C@@H]2C[C@@H](O)CN2C(=O)[C@@H](NC(=O)C2(F)CC2)C(C)(C)C)cc1` (stereo partly shown) [Compound 42e], the DC50 in test [1] came to 4.1 nM; in test [2], 80 nM.

Regarding `Cc1ncsc1-c1ccc([C@H](CCCCCN2CCC(c3ccc4c(c3)n([C@H]3CC[C@@H](O)C3)c3nc(=O)c5c(Br)cccc5n43)CC2)NC(=O)[C@@H]2C[C@@H](O)CN2C(=O)[C@@H](NC(=O)C2(F)CC2)C(C)(C)C)cc1` [Compound 42f], the DC50 was determined as 2 nM in test [1] and 46 nM in test [2].

For the molecule `Cc1ncsc1-c1ccc([C@H](CCC(C)(C)CCN2CCC(c3ccc4c(c3)n(C3CCCC3)c3nc(=O)c5c(Br)cccc5n43)CC2)NC(=O)[C@@H]2C[C@@H](O)CN2C(=O)[C@@H](NC(=O)C2(F)CC2)C(C)(C)C)cc1` [Compound 42g], the DC50 was 3 nM in test [1] and 40 nM in test [2].

`Cc1ncsc1-c1ccc([C@H](CCCCCN2CCC(c3ccc4c(c3)n(C3CCCC3)c3nc(=O)c5c(Br)cccc5n43)CC2)NC(=O)[C@@H]2C[C@@H](O)CN2C(=O)[C@@H](NC(=O)C2(F)CC2)C(C)(C)C)cc1` [Compound 42h]: the DC50 in test [1] came out at 0.3 nM; in test [2] it was 4 nM.

For `Cc1ncsc1-c1ccc([C@H](COC(C)(C)CN2CCCN(c3ccc4c(c3)n(C3CCCC3)c3nc(=O)c5c(Br)cccc5n43)CC2)NC(=O)[C@@H]2C[C@@H](O)CN2C(=O)[C@@H](NC(=O)C2(F)CC2)C(C)(C)C)cc1` [Compound 42i], the figures for the DC50 in test [1] and in test [2] were 9 nM and 24 nM, respectively.

As to `CCC(C)(C)[C@H](NC(=O)C1(F)CC1)C(=O)N1C[C@H](O)C[C@H]1C(=O)N[C@@H](COC(C)(C)CN1CCN(c2ccc3c(c2)n(C2CCCC2)c2nc(=O)c4c(Br)cccc4n32)CC1)c1ccc(-c2scnc2C)cc1` [Compound 42j], the DC50 was 4 nM in test [1] and more than 833 nM in test [2].

`Cc1ncsc1-c1ccc([C@H](COC(C)(C)CN2CCC(c3ccc4c(c3)n(C3CCCC3)c3nc(=O)c5c(Br)cccc5n43)CC2)NC(=O)[C@@H]2C[C@@H](O)CN2C(=O)[C@@H](NC(=O)C2(F)CC2)C(C)(C)C)cc1` [Compound 42l]: the DC50 in test [1] is 3 nM; in test [2], more than 833 nM.

As for `Cc1ncsc1-c1ccc([C@H](CO[C@H](C)CN2CCC(c3ccc4c(c3)n(C3CCCC3)c3nc(=O)c5c(Br)cccc5n43)CC2)NC(=O)[C@@H]2C[C@@H](O)CN2C(=O)[C@@H](NC(=O)C2(F)CC2)C(C)(C)C)cc1` [Compound 42m], the DC50 was 4 nM in test [1] and more than 833 nM in test [2].

Turning to `Cc1ncsc1-c1ccc([C@H](COC(C)(C)CN2CCC(c3ccc4c(c3)n(C3CCCC3)c3nc(=O)c5c(Br)cccc5n43)CC2)NC(=O)[C@@H]2C[C@@H](O)CN2C(=O)[C@@H](NC(=O)C2(F)CC2)C2(C)CCCC2)cc1` [Compound 42n], the DC50 in test [1] is 3 nM; in test [2], 800 nM.

Consider `Cc1ncsc1-c1ccc([C@H](COCCN2CCC(c3ccc4c(c3)n(C3CCCC3)c3nc(=O)c5c(Br)cccc5n43)CC2)NC(=O)[C@@H]2C[C@@H](O)CN2C(=O)[C@@H](NC(=O)C2(F)CC2)C(C)(C)C)cc1` [Compound 42o], for which the DC50 in test [1] stood at 5 nM; in test [2], 90 nM.

For `Cc1ncsc1-c1ccc([C@H](CO[C@H](C)CN2CCC(c3ccc4c(c3)n(C3C[C@H](C)[C@@H](C)C3)c3nc(=O)c5c(Br)cccc5n43)CC2)NC(=O)[C@@H]2C[C@@H](O)CN2C(=O)[C@@H](NC(=O)C2(F)CC2)C(C)(C)C)cc1` [Compound 42p], the DC50 is 13 nM in test [1] and more than 833 nM in test [2].

On to `Cc1ncsc1-c1ccc([C@H](CCCN2CCC(c3ccc4c(c3)n(C3CCCC3)c3nc(=O)c5c(Br)cccc5n43)CC2)NC(=O)[C@@H]2C[C@@H](O)CN2C(=O)[C@@H](NC(=O)C2(F)CC2)C(C)(C)C)cc1` [Compound 42q], for which the DC50 turned out to be 0.4 nM in test [1] and 1 nM in test [2].

Turning to `Cc1ncsc1-c1ccc([C@H](CO[C@H](C)CN2CCC(c3ccc4c(c3)n(C3CCCC3)c3nc(=O)c5c(Cl)cccc5n43)CC2)NC(=O)[C@@H]2C[C@@H](O)CN2C(=O)[C@@H](NC(=O)C2(F)CC2)C23CC4CC(CC(C4)C2)C3)cc1` [Compound 42r], the DC50 in test [1] came to 2 nM; in test [2] it was 27 nM.

With `Cc1ncsc1-c1ccc([C@H](COCCCCCN2CCC(c3ccc4c(c3)n(C3CCCC3)c3nc(=O)c5c(Br)cccc5n43)CC2)NC(=O)[C@@H]2C[C@@H](O)CN2C(=O)[C@@H](NC(=O)C2(F)CC2)C(C)(C)C)cc1` [Compound 42s], the DC50 turned out to be 0.7 nM in test [1] and 8 nM in test [2].

The term DC50 denotes the concentration giving 50% degradation. A lower DC50 goes with degradation at low concentration.
